The results in this text go back to US20260049064A1, “PROTEIN:PROTEIN INTERACTION INHIBITORS” (Purdue Research Foundation, priority 2022, published 2026).

The inhibition is the change of the read-out against control, counted positive when it falls. The term IC50 denotes the midpoint of a concentration-inhibition curve. The low end stands for higher potency, the high end for lower potency.

Type in all cases: cell-based
Series [1] has as its target T1, PRMT5:MEP50 protein-protein interaction (Homo sapiens, UniProt O14744). The experiment in a line: BiFC drug screen of PRMT5:MEP50 interaction in COS-1 cells. The following applies: for rank in BiFC screen (inhibition of PRMT5:MEP50): 18 hours. On the set-up: expressed in transfected cells; host or cells: COS-1. The protocol:
(§1) BiFC Drug Screens: COS-1 cells were grown in DMEM and seeded to 50,000 cells/well of a 12-well plate and allowed to attach for 24 hours. Cells were then transfected with three plasmids pMyc-VN155-PRMT5, pHA-VC-MEP50, and pFLAG-NLS-CFP to visualize the interaction between PRMT5:MEP50. For BiFC screens, the COS-1 cells were treated with compound or DMSO to final concentration (10 μM for compound 1-12 screen and 0.25, 0.50, 0.75, 1.0, and 5.0 μM or subsequent compound 8 screen) six hours after transfection and returned to the incubator. Following 24 hours after transfection, cells were imaged on a Nikon TE-2000U microscope and images for CFP, YFP, and phase contrast were acquired using MetaMorph software (Nikon) with 20× objective. Images were analyzed with ImageJ^70. Regions of Interest (ROI) were selected around each cell, and mean intensity was measured for each selection. A YFP:CFP ratio was calculated for DMSO as well as control treatment cells. The YFP:CFP ratio was then normalized to that of DMSO to generate the BiFC Efficiency score. The lower score indicated less PRMT5:MEP50 PPI detected in a given cell or treatment group. Inhibition (% Inhibition) is calculated as a percent of 100%−the BiFC Efficiency. Referring to FIGS. 6A-6C, for the BiFC screen of compounds 13-22 (including 8a and 8b), COS-1 cells were transfected for 24 hours, treated with 0.5 μM of compounds for 18 hours, and then imaged as described above. Referring to FIG. 6C, for the BiFC screen of compounds 23-26 (including 8a and 8b), COS-1 cells were transfected for 24 hours, treated with 0.25 M of compounds for 18 hours, and then imaged as described above. BiFC drug screens were performed in single biological replicate as a high throughput screen to produce ranked order of compounds, although multiple biological replicate data was used whenever available.

Another series deals with LNCaP cells. The experiment in a line: MTT assay / growth of LNCaP cells. The following applies: for IC50: 72 hours treatment. On the procedure: LNCaP cells were seeded at 7,000 cells per well of a 96-well cell culture plate and incubated 24 hours to allow for attachment. Test compounds were diluted in RPMI-1640/25% DMSO pre-dilutions and added to respective wells of the assay plate to maintain constant concentration of 0.25% DMSO. After addition of compounds, cells were returned to incubator (37° C., 5% CO2) for 72 hours. Following incubation, assay plates were removed from incubator and media aspirated. 30 μL complete RPMI supplemented with 0.5 mg/mL MTT (Sigma) was added to the plate, and plate returned to incubator for 4 hours. Plates were removed, and 88 μL DMSO was added. Plates were shaken at 700 rpm for 1 minute and read on spectrophotometer at 570 nm.

The test system of another series is COS-1 cells. Description: Cell death seen in COS-1 cells during the BiFC screen. The following applies: 10 μM. The protocol:
as §1, with “Referring to FIGS. 6A-6C, for the BiFC screen of compounds 13-22 (including 8a and 8b), COS-1 cells were transfected for 24 hours, treated with 0.5 μM of compounds for 18 hours, and then imaged as described above. Referring to FIG. 6C, for the BiFC screen of compounds 23-26 (including 8a and 8b), COS-1 cells were transfected for 24 hours, treated with 0.25 M of compounds for 18 hours, and then imaged as described above. BiFC drug screens were performed in single biological replicate as a high throughput screen to produce ranked order of compounds, although multiple biological replicate data was used whenever available.” left out

The target in series [2] is T1, PRMT5:MEP50 protein-protein interaction. The experiment in a line: Co-immunoprecipitation western blot in LNCaP cells. To be noted: 500 nM, 24 hrs, three biological replicates. On the procedure: LNCaP cells were treated with either DMSO or compound 17 (500 nM, 24 hrs) and harvested for Co-IP and WB in lysis buffer composed of 50 mM Tris-HCl, pH 7.4, 100 mM NaCl, 10 mM EDTA, 0.1% Triton X-100, 1 mM DTT, 1 mM PMSF, and 5 μg each of chymostatin, leupeptin, pepstatin A, and […]. Cells were lysed over 1 hour rotating in 4° C. and supernatant cleared. Total lysate (1 mg/mL) was used for Co-IP with 4 μg rabbit anti-PRMT5 pAb (Millipore Sigma 07-405), rabbit anti-MEP50 pAb (Cell Signaling Technologies S2823S) or normal rabbit IgG (Millipore Sigma N01-100 UG) overnight. Antibody-bound proteins were precipitated with Pierce Protein A agarose beads (Thermo Scientific 20333). Antibodies and immunoprecipitated proteins were prepared for western blot by adding 50 μL 2×SDS buffer, boiling at 95° C. for 5 min, and storing at -80° C. or proceeding to western blot. Co-IP product, input sample, or ladder were loaded into a 10% acrylamide/bisacrylamide gel (20 μL Co-IP, 20 μL input (0.4% total), 5 μL ladder per lane). […] Band Intensity was determined with ImageLab software and ImageJ.

The next series relates to Involucrine (IVL) gene. The experiment in a line: RT-qPCR expression of IVL in LNCaP cells. The following applies: 500 nM, 72 hours. The protocol: (§2) LNCaP cells were seeded to either 6 cm or 10 cm dishes at 800,000 or 2,200,000 cells/dish respectively. Cells were allowed to attach for 24 hours and then subsequently treated with either compound 17 (500 nM) or DMSO for 72 hours. Cells were then harvested with Trizol reagent (Ambion) and RNA integrity was verified via agarose gel electrophoresis. […] was utilized following manufacturer instructions and as described previously, as described in Deng et al., Oncogene 2017, 36 (9), 1223-123; Hsu et al., Mol. Cell. Endocrinol. 2013, 372 (1-2), 12-221; and Zhang et al., Biochim. Biophys. Acta 2014, 1839 (11), 1330-1340, each of which is incorporated herein by reference in its entirety for its teachings regarding same. RT-qPCR was performed with FastStart Universal SYBR Green Master Mix (Thermo Fisher Scientific) and detected on a QuantStudio 6 Flex with QuantStudio Real-Time PCR control software (Thermo Fisher Scientific). QuantStudio Design and Analysis software (Thermo Fisher Scientific) was used for data analysis. Technical triplicates were run for all samples, samples without detectable amplification were deemed undetected. Primer sets were validated via melt curve and agarose gel analysis of RT-qPCR product. AR primers were used as described in Deng et al., Oncogene 2017, 36 (9), 1223-123. […]

A further series concerns PTEN. Description: RT-qPCR expression of PTEN in LNCaP cells. To be noted: 500 nM, 72 hours. On the procedure:
as §2

The next series has as its system H4R3me2s. The experiment in a line: Global histone H4R3me2s western blot in LNCaP cells. To be noted: 72 hours. On the procedure:
For global histone H4R3 and H4R3me2s western blots, cell lysate was prepared in RIPA buffer (10 mM Tris-HCl pH 8.0, 5 mM EDTA, 1% Triton X-100, 0.1% sodium deoxycholate, 0.1% sodium dodecyl sulfate, 150 mM sodium chloride, and 5 μg/mL each chymostatin, leupeptin, pepstatin A, and antipan in DMSO, with 1 mM PMSF and total soluble protein was quantified using Bradford assay. 100 μL lysate was combined with 100 μL 2×SDS buffer, and 20 μg total lysate was loaded into the wells of a 15% acrylamide/bisacrylamide gel. The gel was run for 60 min at 125 V and transferred onto nitrocellulose membrane for 45 min at 100 V. Anti-H4R3 rabbit pAb (Abcam, ab10158) or anti-H4R3me2s rabbit pAb (Abcam, ab5823) was diluted 1:1000 in PBST and incubated overnight at 4° C. Secondary IRDyeR 800CW Donkey anti-Rabbit IgG Secondary Antibody (Li-Cor, 926-32213) was diluted 1:20,000 in PBST and incubated with the membrane, which was then imaged via LiCor Odyssey CLx imager and analyzed with ImageStudioLite software (Li-Cor). Integrated intensity of H4R3me2s band was normalized to H4R3 to determine relative abundance of H4R3me2s across DMSO and Cpd 17-treated samples.
(In general: Immunoblotting shows a protein as a band on a membrane.)

Another series relates to A549 cells. Description: IC50 in A549 NSCLC cell line. To be noted: 72 hours treatment.
The test system of series [3] is androgen receptor (AR) gene. Description: RT-qPCR expression of AR in LNCaP cells. The following applies: 500 nM, 72 hours. The protocol: as §2
(In general: Real-time PCR tracks product formation cycle by cycle.)

Another series concerns TP53. Description: RT-qPCR expression of TP53 in LNCaP cells. The following applies: 500 nM, 72 hours. On the procedure:
as §2

A further series deals with RB1. The experiment in a line: RT-qPCR expression of RB1 in LNCaP cells. The following applies: 500 nM, 72 hours. The protocol:
as §2

Where only a bound is given, the exact number is not on record here.

T1 sequence (O14744 whole entry): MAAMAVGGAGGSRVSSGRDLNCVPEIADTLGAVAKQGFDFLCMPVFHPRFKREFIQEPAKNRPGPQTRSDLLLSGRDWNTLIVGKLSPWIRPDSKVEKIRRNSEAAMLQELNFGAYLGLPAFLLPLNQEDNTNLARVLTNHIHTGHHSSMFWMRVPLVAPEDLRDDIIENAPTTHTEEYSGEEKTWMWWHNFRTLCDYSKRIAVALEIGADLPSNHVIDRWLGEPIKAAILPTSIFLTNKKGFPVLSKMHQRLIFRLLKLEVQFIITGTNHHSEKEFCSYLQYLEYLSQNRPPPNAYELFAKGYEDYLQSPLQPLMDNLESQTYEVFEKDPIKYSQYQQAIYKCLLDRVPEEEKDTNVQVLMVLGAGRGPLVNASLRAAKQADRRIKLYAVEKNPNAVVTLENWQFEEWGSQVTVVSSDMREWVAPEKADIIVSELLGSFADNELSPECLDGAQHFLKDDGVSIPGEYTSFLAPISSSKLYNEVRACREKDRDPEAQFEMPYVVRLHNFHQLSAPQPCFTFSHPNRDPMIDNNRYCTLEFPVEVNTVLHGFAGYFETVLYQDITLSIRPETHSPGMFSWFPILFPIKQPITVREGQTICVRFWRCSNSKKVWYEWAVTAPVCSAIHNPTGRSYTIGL

Regarding `Cc1noc(C)c1COc1cccc(C(=O)NNC(=O)c2ccc3ccccc3n2)c1` [compound 8, N′-(3-((3,5-dimethylisoxazol-4-yl)methoxy)benzoyl)quinoline-2-carbohydrazide], in [1] (0.25 μM, read-out: inhibition of the BiFC efficiency), the inhibition at 0.25 µM stood at 41%. For the same compound, the “rank in BiFC screen (inhibition of PRMT5:MEP50)” value in [1] (500 nM) is listed as “top four inhibitors”. The “dose-response of BiFC efficiency inhibition” value in [1] (0.25-5 μM) is given as “dose-dependent manner”. In addition, the half-maximal inhibitory concentration (IC50) with LNCaP cells (Homo sapiens, LNCaP, 72 h) turned out to be 1.66 µM. Moreover, in the series on COS-1 cells, the “cell death on treatment in the BiFC assay” value is given as “significant cell death”.
For `Cc1noc(C)c1COc1cccc(C(=O)NNC(=O)c2ccc(C(F)(F)F)cn2)c1` [compound 15, N′-(3-((3,5-dimethylisoxazol-4-yl)methoxy)benzoyl)-5-(trifluoromethyl)picolinohydrazide], the “rank in BiFC screen (inhibition of PRMT5:MEP50)” value in series [1] (500 nM) is “top four inhibitors”.
On to `CCc1noc(C)c1COc1cccc(C(=O)NNC(=O)c2ccc3ccccc3n2)c1` [compound 17, N′-(3-((3-ethyl-5-methylisoxazol-4-yl)methoxy)benzoyl)quinoline-2-carbohydrazide], for which the “rank in BiFC screen (inhibition of PRMT5:MEP50)” value is “most effective” in [1] (250 nM) and “top four inhibitors” in [1] (500 nM). Further, the “decrease in amount of MEP50 co-immunoprecipitated with PRMT5 bait” value in series [2] is listed as 65.4%. The IC50 in the series on LNCaP cells was 0.43 µM; in the series on LNCaP cells (Homo sapiens, LNCaP, 72 h), below 0.45 µM; in the series on A549 cells it was 0.447 µM; in the series on A549 cells (Homo sapiens, A549, 72 h) it was below 0.45 µM. Also, in the series on LNCaP cells (LNCaP cells, 250 nM, 500 nM and 1000 nM, 72 hours), the “suppression of growth and induction of cell death” value was “both suppression of growth and induction of cell death in a dose-dependent manner”. Moreover, in the series on Involucrine (IVL) gene, the “expression of PRMT5:MEP50-regulated IVL gene” value is listed as “significantly de-represses”. In addition, the “expression of PTEN” value with PTEN was “upregulation”. Also, the “dose dependence of global H4R3me2s levels” value in the series on H4R3me2s (LNCaP cells, 250, 500 and 1000 nM) was “decreased in a dose-dependent manner”. Moreover, the “decrease of global H4R3me2s” value with H4R3me2s (LNCaP cells) was determined as 65%. For the same compound, the “expression of PRMT5:pICln-regulated AR gene” value in [3] is recorded as “without significantly altering expression”. In addition, in the series on TP53, the “expression of TP53” value was “to some extent TP53, albeit statistically insignificant”. Besides, the “expression of RB1” value with RB1 is on record as “upregulation”.
